From publication PMC5626787, “Mouse Nudt13 is a Mitochondrial Nudix Hydrolase with NAD(P)H Pyrophosphohydrolase Activity” (The Protein Journal, 2017)

Molecular target: T1, Nudt13 (Mus musculus, UniProt Q8JZU0)
T1 construct: baculovirus, High Five insect cells
T1 sequence (Q8JZU0 1-352): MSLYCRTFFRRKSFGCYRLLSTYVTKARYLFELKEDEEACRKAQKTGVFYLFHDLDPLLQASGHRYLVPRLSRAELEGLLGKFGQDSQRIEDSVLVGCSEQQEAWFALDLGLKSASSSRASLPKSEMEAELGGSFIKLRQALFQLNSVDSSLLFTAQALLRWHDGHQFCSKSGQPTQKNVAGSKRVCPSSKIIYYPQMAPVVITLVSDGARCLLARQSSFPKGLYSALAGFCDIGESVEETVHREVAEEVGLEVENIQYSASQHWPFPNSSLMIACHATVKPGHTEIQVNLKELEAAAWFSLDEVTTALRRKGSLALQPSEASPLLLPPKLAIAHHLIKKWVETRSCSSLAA
Experiment: HPLC product analysis, non-linear regression, Michaelis-Menten
Format: biochemical
Details: 2 mM Mn2+, 50 mM Tris-HCl pH 8.0, 1 mM dithiothreitol, 37 °C; hydrolysis to NMNH and AMP
Experimental: HPLC product analysis, non-linear regression, Michaelis-Menten on Nudt13 | K m and k cat values were determined for NADH under optimal assay conditions

NC(=O)C1=CN([C@@H]2O[C@H](COP(=O)(O)OP(=O)(O)OC[C@H]3O[C@@H](n4cnc5c(N)ncnc54)[C@H](O)[C@@H]3O)[C@@H](O)[C@H]2O)C=CC1 [NADH]
Km: 340 µM
